Reference: paper PMC5740082, “Identification of a CARM1 Inhibitor with Potent In Vitro and In Vivo Activity in Preclinical Models of Multiple Myeloma” (Scientific Reports, 2017)

Tests used:
[1] = biological target: T1, CARM1 (Homo sapiens, UniProt Q86X55); experiment: CARM1 histone methyltransferase (biochemical) assay
T1 construct: FLAG-CARM1 (amino acids 2–585)-His for biochemical studies was expressed in 293 F mammalian cells; made in house; host or cells: 293F mammalian cells
T1 sequence (Q86X55 2-585 isoform Q86X55-1): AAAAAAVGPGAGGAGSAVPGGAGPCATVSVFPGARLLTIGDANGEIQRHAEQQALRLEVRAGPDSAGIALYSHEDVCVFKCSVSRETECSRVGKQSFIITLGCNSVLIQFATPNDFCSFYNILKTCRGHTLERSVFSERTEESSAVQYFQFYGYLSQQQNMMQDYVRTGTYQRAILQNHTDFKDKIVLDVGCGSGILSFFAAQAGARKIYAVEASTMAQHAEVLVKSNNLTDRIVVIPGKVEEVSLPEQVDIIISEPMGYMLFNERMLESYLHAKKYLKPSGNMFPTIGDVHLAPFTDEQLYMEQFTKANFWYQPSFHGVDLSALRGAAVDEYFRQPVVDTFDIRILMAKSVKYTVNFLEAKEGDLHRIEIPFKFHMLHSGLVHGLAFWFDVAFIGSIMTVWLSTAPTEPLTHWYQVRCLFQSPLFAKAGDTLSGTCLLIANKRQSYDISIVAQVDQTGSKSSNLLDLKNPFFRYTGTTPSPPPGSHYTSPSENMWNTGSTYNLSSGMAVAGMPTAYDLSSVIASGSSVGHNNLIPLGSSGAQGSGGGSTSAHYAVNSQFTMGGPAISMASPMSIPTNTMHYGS
Experimental: CARM1 activity was measured as previously reported for the histone methyltransferases PRMT1/6/8[65] and PRMT5[58]. Briefly, CARM1 was preincubated with compounds for 30 minutes at room temperature before reactions were initiated. […] The assays were quenched by the addition of 300 μM unlabeled SAM. The quantity of ^3H-labeled peptide produced was measured by Flashplate on a Topcount reader. Further details can be found in the Supplementary Methods.
Histone methyltransferase assay
The compounds were preincubated with CARM1 for 30 minutes at room temperature before the reactions were initiated by the addition of substrates. […]
containing 20 mM bicine, 1 mM tris(2-carbox yethyl)phosphine, 0.005% bovine skin gelatin and 0.002% Tween-20, pH 7.5 and 2% DMSO. The peptide sequence was biotin-aminohexanoate- […]
eKS AP-amide, where RMe is a monomethylated arginine residue (21st
Century Biochemicals, Marlboro, MA). After 2 hours, assa ys were quenched b y the addition of 300 μM unlabeled SAM. The reactions were tran sferred to a 384-well Flashplate (Perkin Elmer) and the biotinylated peptides were allowed to bind to the streptavidin surface for at least 1 hour before being washed once with 0.1% Tween 20. The quantit y of 3H-labeled peptide bound to the Flashplate surface was counted on a Topcount reader as counts per minute (cpm). % Inhibition values wer e calculated and IC50 values were fit using the 3 -param eter IC50 equation below:
YY = BBBBBBBBBBBB + (100 − BBBBBBBBBBBB )HHHHHHHH CCCCCCCCCCHHCCHHCCCCCC where top is fixed at 100 or the maximum inhibition plateau , Y is % inhibition and X is […]
IC50 vs [peptide] data were fit to the noncom petitive Cheng- Prusoff […]
The effect of reaction time on compound potency was determined b y meas uring IC50 values from […]
to a one phase exponential deca y equation. […]
activity was measured under standard conditions after a 30 minute preincubation.
IC 50 values were d etermi ned and data wer e anal yz ed using the following eq uation: […]

[2] = Plasma protein binding (equilibrium dialysis), mouse plasma; type: in vitro ADME, CD-1 mouse; conditions: male, CD-1, pH 7.4
Experimental: Hepatocyte stability, plasma protein binding and cytochrome P450 assays were performed using standard procedures. Details can be found in Supplementary Methods. […]
reaction. Plates were incubated at 37°C and 50 µL aliquots were removed from the incubation mixture at 0, 10, 20, 40, 60 and 90 min and added to 2 volumes of methanol containing metoprolol (internal standard) to stop the reaction. Negative control incubations with inactivated cell l ysat e were incubat ed for 90 min. Positive controls were verapamil and umbelliferone. The termination plates were centrifuged at 2,500 rpm for 20 min at 4°C to precipitate the protein prior to LC -MS/MS analysis. In vitro h alf -life (t½) value was det ermined b y plotting the natural logarithm of the anal yte/ IS peak area ratios as a function of time, with the slope of the linear regression (k; - gradient) converted to in vitro t ½ v alue wher e t ½=0.693/k. […]
Plasma protein binding was assessed b y equilibrium dial ysis, utilizing the HT-dial ysis cell format with a cellulose semi- permeable membran e (molecular wei ght cut-off of 5000 Da).
(pH 7.4) and 100% mixed gender pooled human, pooled male CD -1 mouse or Sprague-Dawle y rat plasma. […] Samples were quantified using standard curves prepared in the equivalent matrix. The fraction unbound in plas ma (fu) was calculated us ing the followin g equ ation: […]

[3] = biological target: hERG channel (Homo sapiens, UniProt Q12809); experiment: hERG channel current inhibition; type: biochemical; conditions: read-out: IC50 against hERG channel current inhibition
Chain of hERG channel (Q12809 whole entry): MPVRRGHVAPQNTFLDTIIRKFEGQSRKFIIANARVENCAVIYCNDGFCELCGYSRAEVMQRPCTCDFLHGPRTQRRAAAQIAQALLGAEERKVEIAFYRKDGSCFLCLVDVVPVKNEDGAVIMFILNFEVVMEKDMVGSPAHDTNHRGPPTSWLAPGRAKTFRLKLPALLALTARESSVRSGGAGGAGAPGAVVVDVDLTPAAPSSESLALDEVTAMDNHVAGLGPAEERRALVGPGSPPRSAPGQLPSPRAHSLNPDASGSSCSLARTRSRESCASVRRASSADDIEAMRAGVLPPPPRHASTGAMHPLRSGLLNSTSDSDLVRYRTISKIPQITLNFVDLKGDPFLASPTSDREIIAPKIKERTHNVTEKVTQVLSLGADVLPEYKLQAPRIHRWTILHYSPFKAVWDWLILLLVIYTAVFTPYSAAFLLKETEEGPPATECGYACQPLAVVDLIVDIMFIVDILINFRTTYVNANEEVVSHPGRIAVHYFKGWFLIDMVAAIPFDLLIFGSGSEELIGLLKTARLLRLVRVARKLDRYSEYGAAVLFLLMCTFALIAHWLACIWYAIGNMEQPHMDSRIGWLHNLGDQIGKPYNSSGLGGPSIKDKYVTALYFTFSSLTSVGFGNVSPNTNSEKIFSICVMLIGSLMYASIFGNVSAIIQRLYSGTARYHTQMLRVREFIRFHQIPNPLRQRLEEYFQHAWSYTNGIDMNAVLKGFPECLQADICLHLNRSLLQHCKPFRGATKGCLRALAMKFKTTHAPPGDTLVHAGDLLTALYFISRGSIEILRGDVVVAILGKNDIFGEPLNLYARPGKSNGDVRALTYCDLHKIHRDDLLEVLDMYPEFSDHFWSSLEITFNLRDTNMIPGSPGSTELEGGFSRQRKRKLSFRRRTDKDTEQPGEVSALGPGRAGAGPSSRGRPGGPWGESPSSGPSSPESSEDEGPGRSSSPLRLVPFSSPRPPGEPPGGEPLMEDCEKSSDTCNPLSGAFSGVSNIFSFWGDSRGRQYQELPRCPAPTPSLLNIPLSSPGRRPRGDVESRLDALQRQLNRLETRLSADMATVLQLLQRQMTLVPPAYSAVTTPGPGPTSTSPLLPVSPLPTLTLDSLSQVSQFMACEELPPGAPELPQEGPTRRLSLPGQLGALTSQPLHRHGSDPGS

**Q.** With `CNC[C@@H](O)COc1ccc(Cl)c(-c2nc(-c3c(C)noc3C)c(C)c(N3CC4(CCN(C(=O)OC)CC4)C3)n2)c1` [EZM2302] as the molecule, how does the “α value (dual inhibitor study with SAH)” value ([1]; varying EZM2302 and SAH) read?
**A.** Its value is 0.2.

**Q.** What about the “α (noncompetitive fit, substrate competition)” value ([1]; varying peptide concentrations) of the same molecule?
**A.** The value was 0.2.

**Q.** And the fraction unbound at 16 h, 5 µM [2]?
**A.** Its fraction unbound at 16 h, 5 µM is 0.46.

**Q.** And the IC50 [3]?
**A.** The IC50 was > 100 µM.
